Laboratory results taken from patent publication US20180117006A1, “ANTI-FUGETACTIC AGENT AND IMMUNOTHERAPY AGENT COMBINATION THERAPY AND COMPOSITIONS FOR THE TREATMENT OF CANCER” (THE GENERAL HOSPITAL CORPORATION, priority 2015, published 2018).

System: tumor that expresses high levels of CXCL12
Assay: Tumor growth in mice with a subcutaneous CXCL12-expressing tumor
Assay type: in vivo
Details: AMD3100 subcutaneous once a day for 5 days, then NK-92 cells intraperitoneal one to three days after the final dose, contemplated synergistic effect
Experimental: Mice are injected with tumor cells (subcutaneous injection) from a tumor that expresses high levels of CXCL12 and a tumor allowed to develop. Once the tumor has formed, the mice are injected (subcutaneous in the same flank as the tumor) with AMD3100 or vehicle, once a day for 5 days.
One to three days after the final dose of AMD3100, mice are injected via intraperitoneal injection with NK-92 cells or vehicle 18 hours prior to assay of tumor growth. Tumor growth in mice is delayed by NK-92 cell treatment, but resumes soon after the treatment is discontinued in mice that were not administered AMD3100.

c1cc(CN2CCCNCCNCCCNCC2)ccc1CN1CCCNCCNCCCNCC1 [AMD3100] was tested, and the “Delay in tumor growth (co-treatment)” value was “longer than NK-92 cells alone”.
